This is an account of results in US20210214341A1, “SUBSTITUTED PYRIDINYL AZETIDINONE DERIVATIVES FOR USE IN TREATING CANCER AND OTHER DISEASES” (The Board of Regents of the University of Texas System, priority 2018, published 2021).

The term IC50 denotes the concentration at which inhibition is half-maximal.

Like-named read-outs stand apart in the source and are kept apart here.

The test system of experiment [1] is normal pancreatic ductal epithelial cells (ATCC CRL-4038). In words: SRB (Sulforhodamine B) assay in normal pancreatic ductal epithelial cells. The format is cell-based. To be noted: Epithelial cell; 2D-culture, SRB, average of 3 runs; read-out: IC50 (NPC). As to the method:
(§1) FIGS. 1A-1B show the IC50 curves of the twelve investigational β-lactams in pancreatic cancer cells PANC-1 (ATCC CRL-1469) and normal pancreatic ductal epithelial cells (ATCC CRL-4038). The GraphPad Prism software was used to process the results. The IC50 values were determined by SRB (Sulforhodamine B) assay following standard procedure. PANC-1 cells were plated in 96 well plates and treated with 1, 10, 100, 1000 and 10,000 nM of each of the drugs in triplicate for 72 hrs. Cells were fixed, washed and stained with SRB dye, the stained cells were washed, and the dye solubilized. It was read using a plate reader at 565 nm. The IC50 values were calculated assuming that the 10 μM sample has reached saturation. Following similar way, IC50 values were determined for normal pancreatic ductal epithelial cells.
(§2) As mentioned earlier, PANC-1 is referred to generically as the “gold standard of pancreatic cancers” representing as it does almost total resistance to GEM, the first line treatment currently used in clinical situations. Pancreatic cancer cells PANC-1 (ATCC CRL-1469) and normal pancreatic ductal epithelial cells (ATCC CRL-4038) were used in this study. The GraphPad Prism software was used to process the results. […] Cells were fixed, washed and stained with SRB dye, the stained cells were washed, and the dye solubilized. It was read using a plate reader at 565 nm. The IC50 values were calculated assuming that the 10 μM sample has reached saturation. Following similar way, IC50 values were determined for normal pancreatic ductal epithelial cells.

For experiment [2], the system named is pancreatic cancer cells PANC-1 (ATCC CRL-1469). In words: SRB (Sulforhodamine B) assay in PANC-1 cells. The format is cell-based. As to conditions: Homo sapiens, PANC-1; 2D-culture, SRB, 72 hrs, average of 3 runs; read-out: IC50 (PANC-1). As to the method: as §1, §2
For another experiment, the system named is PANC-1 tumorspheres. In words: 3D-tumorsphere formation assay. The format is cell-based, human. As to the method: Number of tumorspheres formed can be used to distinguish the efficacy of different anticancer drugs in a more physically acceptable method than 2D culture. Based on selectivity and toxicity towards PANC-1 cells in comparison to normal pancreatic ductal epithelial cells (Table D), six compounds (A, B, C, E, F, and G) were chosen for the 3D-tumorsphere formation assay. The assay was carried out by following the protocol developed by Johnson et al., (2013). PANC-1 cells (5000) were plated as single cells in Corning ultra-low attachment 24 well plates in 0.5 ml DMEM+10% FBS. The cells were grown in a humidified atmosphere of 5% CO2 for 168 hrs. 0.1 ml Media was added on 72nd and 144 hrs. The β-lactams were dissolved in DMSO and maintained at −20° C. On the day of assay, on the addition of media, the drugs were freshly diluted in media. The final concentrations of drugs were 0, 1 nM, 10 nM, 100 nM, 1 uM, 10 μM. After 144 hours the total number tumorspheres that were larger than 100 micrometers were counted in a field of 1 mm×1 mm at 10× magnification in a bright field microscope. The data was plotted and the IC50 value was calculated.
3D-tumorsphere formation assay is considered to be a fast and economical intermediary step between in vitro and in vivo biological evaluations. A tumorsphere is a solid, spherical formation developed from the proliferation of a single cancer stem/progenitor cell in 3D culture. These cells are easily distinguishable from single or aggregated as they appear to become fused together and individual cells cannot be appearing to become fused together and individual cells cannot be identified. The size can vary from less than 50 micrometers to 250 micrometers. The number of tumorspheres formed can be used to characterize the cancer stem cell population within different in vitro cultured cancer cell lines. The number of tumorspheres formed can also be used to distinguish the efficacy of different anticancer drugs in a more physically acceptable method than 2D culture. Based on selectivity and toxicity towards PANC-1 cells in comparison to normal pancreatic ductal epithelial cells (Table D), six compounds (A, B, C, E, F, and G) were chosen for the 3D-tumorsphere formation assay. The assay was carried out by following the protocol developed by Johnson et al., (2013). […] The below steps were followed to accomplish the assay. • 5000 PANC-1 cells were plated as single cells in Corning ultra-low attachment 24 well plates in 0.5 ml DMEM+10% FBS. • Cells were grown in a humidified atmosphere of 5% CO2 for 168 hrs. 0.1 ml Media was added on 72nd and 144 hrs. • Drugs were dissolved in DMSO and maintained at −20° C. On the day of assay, on the addition of media, the drugs were freshly diluted in media. • The final concentrations of drugs were 0, 1 nM, 10 nM, 100 nM, 1 μM, 10 μM. • After 144 hrs the total number tunorspheres that were larger than 100 micrometers were counted in a field of 1 mm×1 mm at 10× magnification in a bright field microscope. The data was plotted and the IC50 value was calculated.

A further experiment concerns PANC-1 cells. In words: Flow cytometric cell cycle analysis. The format is cell-based, human. To be noted: tested for 24, 48 and 72 hrs. As to the method: The noise was cleared. […] After 72 hrs all the cells (including floaters) were collected, the adhered cells were trypsinized and collected as well. The cells were then centrifuged in a 50 mL centrifuge tube. The pellet was washed with PBS and reconstituted in 500 μL PBS. The cells were then fixed in ice cold ethanol by adding the ethanol dropwise while gently vortexing the cells. Stored at 4° C. for overnight. The cells were then centrifuged, and the pellet reconstituted in Guava cell cycle reagent and analyzed in a Guava flow cytometer. A similar experiment was conducted with normal pancreatic ductal epithelial cells (NPC) and the drug treatment was done according to the IC50 values observed in the 2D assay conducted on them (Table E). Please note that 2N represents G0/G1 and 4N for G2 phases.
After 72 hrs all the cells (including floaters) were collected, the adhered cells were trypsinized and collected as well. The cells were then centrifuged in a 50 mL centrifuge tube. The pellet was washed with PBS and reconstituted in 500 μL PBS. The cells were then fixed in ice cold ethanol by adding the ethanol dropwise while gently vortexing the cells. […] The cells were then centrifuged, and the pellet reconstituted in Guava cell cycle reagent and analyzed in a Guava flowcytometer. […] First set of data with PANC-1 cells were analyzed by using FlowJo software, the noise was cleared (FIG. 3). […]

Another experiment has as its system HPAC. In words: Cytotoxicity IC50 in HPAC cells. As to conditions: Homo sapiens; HPAC cell line; read-out: IC50 (mean ± standard error). In kind it is cell-based. The text has this: (§3) B. Cytotoxicity Studies: Determination of IC50 Values (Single Run) in Capan-2, HPAC. HPAF-II, and HS766T Cell Lines
(§4) Capan-2, HPAC. HPAF-H, and HS766T. The compounds A, D, E, G, and H were chosen randomly, out of twelve β-laclam molecules, to carry out this evaluation.

A further experiment has as its system CaPan-2. Description: Cytotoxicity IC50 in CaPan-2 cells. In kind it is cell-based. To be noted: Homo sapiens; CaPan-2 cell line; read-out: IC50 (mean ± standard error).
From the text: as §3, §4

For a further experiment, the system named is HS 766T. Description: Cytotoxicity IC50 in HS 766T cells. In kind it is cell-based. As to conditions: Homo sapiens, Hs766T; HS 766T cell line; read-out: IC50 (mean ± standard error).
From the text: as §3, §4

A further experiment has as its system HPAF-II. In words: Cytotoxicity IC50 in HPAF-II cells. The format is cell-based. As to conditions: Homo sapiens; HPAF-II cell line; read-out: IC50 (mean ± standard error).
From the text: as §3, §4

Experiment [3] has as its system pancreatic cancer cells PANC-1 (ATCC CRL-1469). To be noted: cited from earlier work.

Regarding `CS(=O)(=O)O[C@@H]1C(=O)N(c2cc3c4ccccc4ccc3c3ccccc23)[C@H]1c1ccc(F)cn1` (racemic) [A, (±)-Trans-N-(chrysen-6-yl)-2-(5-fluoropyridin-2-yl)-4-oxoazetidin-3-yl methanesulfonate], the IC50 in experiment [1] is 449 nM; in [2], 21.2 nM; with PANC-1 tumorspheres (Homo sapiens, tumorspheres larger than 100 micrometers counted after 144 hrs), 18.1 nM; with HPAC it was greater than 10000 nM; with CaPan-2, greater than 10000 nM; with HS 766T it was 240 ± 380 nM. Also, in the experiment on HPAF-II, the IC50 was 980 ± 380 nM. Further, in the experiment with PANC-1 tumorspheres, the “activity in 3D-tumorsphere formation assay compared with 2D-culture” value is “higher activity in 3D-tumorphere formation assay than 2D-culture”. Besides, the “time of maximum cell cycle blockage” value in the experiment with PANC-1 cells amounted to 72 h.

On to `CS(=O)(=O)O[C@H]1C(=O)N(c2cc3c4ccccc4ccc3c3ccccc23)C1c1ccccn1` (some centres unmarked) [TX-262], for which the IC50 is 430 nM in [3] (TX-262, from Banik et al., WO 2012/103456, read-out: IC50 (PANC-1)) and 430 nM in experiment [3] (TX-262, read-out: PANC-1 cell lines IC50).
